In patent US20220298138A1, “ENZYME INHIBITORS” (KALVISTA PHARMACEUTICALS LIMITED, priority 2019, published 2022):
pIC50: −log10 of the molar value.

Each compound was assayed against T1, Human Factor XIIa (Homo sapiens, UniProt P00748) (assay: Factor XIIa inhibitory activity in vitro (fluorogenic substrate H-DPro-Phe-Arg-AFC)). Settings: 25° C., class symbols, read-out: Human FXIIa IC50.
T1 construct: purchased Enzyme Research Laboratories
T1 sequence (P00748 373-615 limits assumed): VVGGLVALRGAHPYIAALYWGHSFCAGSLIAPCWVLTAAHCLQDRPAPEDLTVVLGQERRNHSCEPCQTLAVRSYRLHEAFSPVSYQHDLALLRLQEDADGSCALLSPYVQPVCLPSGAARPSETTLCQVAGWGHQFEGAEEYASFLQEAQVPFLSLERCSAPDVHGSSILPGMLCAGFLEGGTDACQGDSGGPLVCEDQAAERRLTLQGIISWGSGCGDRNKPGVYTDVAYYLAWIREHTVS
Type: biochemical
Protocol: Determination of the % Inhibition for FXIIa
Human Factor XIIa (Enzyme Research Laboratories) was incubated at 25° C. with the fluorogenic substrate H-DPro-Phe-Arg-AFC and various concentrations of the test compound. Residual enzyme activity (initial rate of reaction) was determined by measuring the change in […] at 410 nm and the IC50 value for the test compound was determined.
Compound `Cc1cc(C)c(C(=O)N[C@@H](Cc2ccc(F)c(F)c2)C(=O)NCc2ccc3c(N)nccc3c2)[nH]1` [Example 0.01] has a pIC50 of 5.00 to 5.52. For `CC(C)N1CCCC[C@@H]1C(=O)N[C@@H](Cc1ccc(F)c(F)c1)C(=O)NCc1ccc2c(N)nccc2c1` [Example 0.02], the pIC50 was 6.55 to 7.00. `Cn1cc(C(=O)N[C@@H](Cc2ccc(F)c(F)c2)C(=O)NCc2ccc3c(N)nccc3c2)cn1` [Example 0.03] was tested, and the pIC50 was 4.40 to 5.00. Compound `Nc1nccc2cc(CNC(=O)[C@H](Cc3ccc(F)c(F)c3)NC(=O)c3ccccc3N3CCOCC3)ccc12` [Example 0.04] has a pIC50 of 4.40 to 5.00. `Nc1nccc2cc(CNC(=O)[C@H](Cc3ccc(F)c(F)c3)NC(=O)c3cccc(-n4cccn4)c3)ccc12` [Example 0.05] gave a pIC50 of 5.00 to 5.52. With `Cc1nc(C(=O)N[C@@H](Cc2ccc(F)c(F)c2)C(=O)NCc2ccc3c(N)nccc3c2)c(C)o1` [Example 0.06] the pIC50 was 4.40 to 5.00. Work on `CC(C)n1cc(C(=O)N[C@@H](Cc2ccc(F)c(F)c2)C(=O)NCc2ccc3c(N)nccc3c2)cn1` [Example 0.07] yielded a pIC50 of 4.40 to 5.00. Compound `CN1CCN(c2cccc(C(=O)N[C@@H](Cc3ccc(F)c(F)c3)C(=O)NCc3ccc4c(N)nccc4c3)c2)CC1` [Example 0.08] has a pIC50 of 5.00 to 5.52. `Nc1nccc2cc(CNC(=O)[C@H](Cc3ccc(F)c(F)c3)NC(=O)c3cccc(-n4ccnc4)c3)ccc12` [Example 0.09] showed a pIC50 of 5.00 to 5.52. Compound `Nc1nccc2cc(CNC(=O)[C@H](Cc3ccc(F)c(F)c3)NC(=O)c3ccc(-n4ccnc4)nc3)ccc12` [Example 0.10] has a pIC50 of 4.40 to 5.00. For `N#Cc1ccc(C(=O)N[C@@H](Cc2ccc(F)c(F)c2)C(=O)NCc2ccc3c(N)nccc3c2)nc1` [Example 0.11], the pIC50 was 4.40 to 5.00. Compound `COc1cncc(C(=O)N[C@@H](Cc2ccc(F)c(F)c2)C(=O)NCc2ccc3c(N)nccc3c2)c1` [Example 0.12] has a pIC50 of 5.00 to 5.52. In the case of `Nc1nccc2cc(CNC(=O)[C@H](Cc3ccc(F)c(F)c3)NC(=O)c3ccc[nH]c3=O)ccc12` [Example 0.13], the pIC50 was 5.00 to 5.52. With `Cc1cc(C(=O)N[C@@H](Cc2ccc(F)c(F)c2)C(=O)NCc2ccc3c(N)nccc3c2)n[nH]1` [Example 0.14] the pIC50 was 5.00 to 5.52. Compound `Nc1nccc2cc(CNC(=O)[C@H](Cc3ccc(F)c(F)c3)NC(=O)c3cccnn3)ccc12` [Example 0.15] has a pIC50 of 5.00 to 5.52. In the case of `Nc1nccc2cc(CNC(=O)[C@H](Cc3ccc(F)c(F)c3)NC(=O)c3ccnnc3)ccc12` [Example 0.16], the pIC50 was 5.00 to 5.52. Compound `Cn1ccc(C(=O)N[C@@H](Cc2ccc(F)c(F)c2)C(=O)NCc2ccc3c(N)nccc3c2)n1` [Example 0.17] has a pIC50 of 4.40 to 5.00. `Nc1nccc2cc(CNC(=O)[C@H](Cc3ccc(F)c(F)c3)NC(=O)c3ncccn3)ccc12` [Example 0.18] was tested, and the pIC50 was 4.40 to 5.00. `CN(C)[C@H](CCc1ccccc1)C(=O)N[C@@H](Cc1ccc(F)c(F)c1)C(=O)NCc1ccc2c(N)nccc2c1` [Example 0.19] showed a pIC50 of 4.40 to 5.00. In the case of `Nc1nccc2cc(CNC(=O)[C@H](Cc3ccc(F)c(F)c3)NC(=O)c3cncnc3)ccc12` [Example 0.20], the pIC50 was 5.00 to 5.52. `Cc1nocc1C(=O)N[C@@H](Cc1ccc(F)c(F)c1)C(=O)NCc1ccc2c(N)nccc2c1` [Example 0.21] showed a pIC50 of 5.00 to 5.52. `Cc1cnc(C(=O)N[C@@H](Cc2ccc(F)c(F)c2)C(=O)NCc2ccc3c(N)nccc3c2)cn1` [Example 0.22] gave a pIC50 of 5.00 to 5.52. For `Nc1nccc2cc(CNC(=O)[C@H](Cc3ccc(F)c(F)c3)NC(=O)c3cccnc3)ccc12` [Example 0.23], the pIC50 was 4.40 to 5.00. Compound `Nc1nccc2cc(CNC(=O)[C@H](Cc3ccc(F)c(F)c3)NC(=O)CCCOCc3ccccc3)ccc12` [Example 0.24] has a pIC50 of 4.40 to 5.00. Work on `N#Cc1cccc(C(=O)N[C@@H](Cc2ccc(F)c(F)c2)C(=O)NCc2ccc3c(N)nccc3c2)c1` [Example 0.25] yielded a pIC50 of 5.00 to 5.52. For `Cc1nc2ccncc2cc1C(=O)N[C@@H](Cc1ccc(F)c(F)c1)C(=O)NCc1ccc2c(N)nccc2c1` [Example 0.26], the pIC50 was 4.40 to 5.00. With `Nc1nccc2cc(CNC(=O)[C@H](Cc3ccc(F)c(F)c3)NC(=O)c3ccc(-c4cncnc4)cc3)ccc12` [Example 0.27] the pIC50 was 4.40 to 5.00. With `Nc1nccc2cc(CNC(=O)[C@H](Cc3ccc(F)c(F)c3)NC(=O)c3ccc4cnccc4c3)ccc12` [Example 0.28] the pIC50 was 4.40 to 5.00. Compound `Nc1nccc2cc(CNC(=O)[C@H](Cc3ccc(F)c(F)c3)NC(=O)c3ccn[nH]3)ccc12` [Example 0.29] has a pIC50 of 5.00 to 5.52. `Nc1nccc2cc(CNC(=O)[C@H](Cc3ccc(F)c(F)c3)NC(=O)c3ccno3)ccc12` [Example 0.30] gave a pIC50 of 4.40 to 5.00. `Nc1nccc2cc(CNC(=O)[C@H](Cc3ccc(F)c(F)c3)NC(=O)c3ccc4ncccc4n3)ccc12` [Example 0.31] showed a pIC50 of 4.40 to 5.00. `COc1cc(C(=O)N[C@@H](Cc2ccc(F)c(F)c2)C(=O)NCc2ccc3c(N)nccc3c2)on1` [Example 0.32] showed a pIC50 of 5.00 to 5.52. `Nc1nccc2cc(CNC(=O)[C@H](Cc3ccc(F)c(F)c3)NC(=O)c3cscn3)ccc12` [Example 0.33] gave a pIC50 of 5.00 to 5.52. `Nc1nccc2cc(CNC(=O)[C@H](Cc3ccc(F)c(F)c3)NC(=O)c3ccccc3)ccc12` [Example 0.34] showed a pIC50 of 4.40 to 5.00. `Nc1nccc2cc(CNC(=O)[C@H](Cc3ccc(F)c(F)c3)NC(=O)c3ccncc3)ccc12` [Example 0.35] showed a pIC50 of 4.40 to 5.00. For `Cc1cc2ncc(C(=O)N[C@@H](Cc3ccc(F)c(F)c3)C(=O)NCc3ccc4c(N)nccc4c3)c(C)n2n1` [Example 0.36], the pIC50 was 5.00 to 5.52. Compound `Nc1nccc2cc(CNC(=O)[C@H](Cc3ccc(F)c(F)c3)NC(=O)c3cnc4n(c3=O)CCS4)ccc12` [Example 0.37] has a pIC50 of 5.52 to 6.00. Work on `CC(C)n1nnc2cc(C(=O)N[C@@H](Cc3ccc(F)c(F)c3)C(=O)NCc3ccc4c(N)nccc4c3)ccc21` [Example 0.38] yielded a pIC50 of 4.40 to 5.00. Compound `Nc1nccc2cc(CNC(=O)[C@H](Cc3ccc(F)c(F)c3)NC(=O)COCc3ccccc3)ccc12` [Example 0.39] has a pIC50 of 4.40 to 5.00. For `Nc1nccc2cc(CNC(=O)[C@H](Cc3ccc(F)c(F)c3)NC(=O)c3ccc4ncsc4c3)ccc12` [Example 0.40], the pIC50 was 4.40 to 5.00. Work on `Nc1nccc2cc(CNC(=O)[C@H](Cc3ccc(F)c(F)c3)NC(=O)CCS(=O)(=O)c3ccccc3)ccc12` [Example 0.41] yielded a pIC50 of 5.00 to 5.52. `COc1ncccc1C(=O)N[C@@H](Cc1ccc(F)c(F)c1)C(=O)NCc1ccc2c(N)nccc2c1` [Example 0.42] was tested, and the pIC50 was 4.40 to 5.00. Compound `CN1CCC(C(=O)N[C@@H](Cc2ccc(F)c(F)c2)C(=O)NCc2ccc3c(N)nccc3c2)CC1` [Example 0.43] has a pIC50 of 5.00 to 5.52. Compound `Nc1nccc2cc(CNC(=O)[C@H](Cc3ccc(F)c(F)c3)NC(=O)C3=CCC(=O)NN3)ccc12` [Example 0.44] has a pIC50 of 5.00 to 5.52. Compound `Nc1nccc2cc(CNC(=O)[C@H](Cc3ccc(F)c(F)c3)NC(=O)c3cccnc3N3CCOCC3)ccc12` [Example 0.45] has a pIC50 of 4.40 to 5.00. For `Nc1nccc2cc(CNC(=O)[C@H](Cc3ccc(F)c(F)c3)NC(=O)CCc3ccccc3)ccc12` [Example 0.46], the pIC50 was 4.40 to 5.00. For `CS(=O)(=O)c1cccc(C(=O)N[C@@H](Cc2ccc(F)c(F)c2)C(=O)NCc2ccc3c(N)nccc3c2)c1` [Example 0.47], the pIC50 was 5.00 to 5.52. `Nc1nccc2cc(CNC(=O)[C@H](Cc3ccc(F)c(F)c3)NC(=O)c3cc4ccccc4o3)ccc12` [Example 0.48] showed a pIC50 of 4.40 to 5.00. `Nc1nccc2cc(CNC(=O)[C@H](Cc3ccc(F)c(F)c3)NC(=O)c3ccc(F)c(F)c3)ccc12` [Example 0.49] was tested, and the pIC50 was 4.40 to 5.00. With `Cc1cccnc1C(=O)N[C@@H](Cc1ccc(F)c(F)c1)C(=O)NCc1ccc2c(N)nccc2c1` [Example 0.50] the pIC50 was 5.00 to 5.52. Work on `Nc1nccc2cc(CNC(=O)[C@H](Cc3ccc(F)c(F)c3)NC(=O)CCc3nnc(-c4ccccc4)o3)ccc12` [Example 0.51] yielded a pIC50 of 4.40 to 5.00. `Cn1cc(C(=O)N[C@@H](Cc2ccc(F)c(F)c2)C(=O)NCc2ccc3c(N)nccc3c2)ccc1=O` [Example 0.52] showed a pIC50 of 5.00 to 5.52. `Cc1nc2ccccn2c1C(=O)N[C@@H](Cc1ccc(F)c(F)c1)C(=O)NCc1ccc2c(N)nccc2c1` [Example 0.53] was tested, and the pIC50 was 4.40 to 5.00. `CC(C)c1cc(C(=O)N[C@@H](Cc2ccc(F)c(F)c2)C(=O)NCc2ccc3c(N)nccc3c2)[nH]n1` [Example 0.54] was tested, and the pIC50 was 5.00 to 5.52. `CCn1nc(C)cc1C(=O)N[C@@H](Cc1ccc(F)c(F)c1)C(=O)NCc1ccc2c(N)nccc2c1` [Example 0.55] gave a pIC50 of 4.40 to 5.00. In the case of `Nc1nccc2cc(CNC(=O)[C@H](Cc3ccc(F)c(F)c3)NC(=O)C3CCC(O)CC3)ccc12` (some centres unmarked) [Example 0.56], the pIC50 was 4.40 to 5.00. In the case of `Nc1nccc2cc(CNC(=O)[C@H](Cc3ccc(F)c(F)c3)NC(=O)c3cccc(O)n3)ccc12` [Example 0.57], the pIC50 was 5.52 to 6.00. Work on `COc1cc(C(=O)N[C@@H](Cc2ccc(F)c(F)c2)C(=O)NCc2ccc3c(N)nccc3c2)ccc1F` [Example 0.58] yielded a pIC50 of 5.00 to 5.52. `Nc1nccc2cc(CNC(=O)[C@H](Cc3ccc(F)c(F)c3)NC(=O)c3cc(CO)ccn3)ccc12` [Example 0.59] gave a pIC50 of 5.00 to 5.52. `CNS(=O)(=O)c1cccc(C(=O)N[C@@H](Cc2ccc(F)c(F)c2)C(=O)NCc2ccc3c(N)nccc3c2)c1` [Example 0.60] showed a pIC50 of 5.00 to 5.52. `Nc1nccc2cc(CNC(=O)[C@H](Cc3ccc(F)c(F)c3)NC(=O)c3c[nH]nc3C3CC3)ccc12` [Example 0.61] gave a pIC50 of 4.40 to 5.00. `Nc1nccc2cc(CNC(=O)[C@H](Cc3ccc(F)c(F)c3)NC(=O)c3ccc(O)nc3)ccc12` [Example 0.62] gave a pIC50 of 5.00 to 5.52. `Nc1nccc2cc(CNC(=O)[C@H](Cc3ccc(F)c(F)c3)NC(=O)c3cn[nH]c3)ccc12` [Example 0.65] showed a pIC50 of 4.40 to 5.00. `Nc1nccc2cc(CNC(=O)[C@H](Cc3ccc(F)c(F)c3)NC(=O)C(F)F)ccc12` [Example 0.66] gave a pIC50 of 5.00 to 5.52.

Same assay, conditions: 25° C., numeric bound instead of class symbol, read-out: Human FXIIa IC50
Work on `Cc1nc(C(F)(F)F)ccc1C(=O)N[C@@H](Cc1ccc(F)c(F)c1)C(=O)NCc1ccc2c(N)nccc2c1` [Example 0.63] yielded a pIC50 of under 4.90.
